In PMC10337138 (Acta Neuropathologica Communications, 2023):

Legend:
Conditions in all cases: 1 mM ATP; inhibitor
BRSK2 = BRSK2 (Homo sapiens, UniProt Q8IWQ3)
Description: (§1) Kinase selectivity panel Kinome profiling was conducted by AssayQuant Technologies (Marlboro, MA) using Sox chromophore technology and Sox-based peptide substrates developed for human kinases in a 384-well format. Compounds were tested at 1 µM in the presence of 1 mM ATP.

CAMK2A = CAMK2A (Homo sapiens, UniProt Q9UQM7)
Description: as §1

CAMK2D = CAMK2D (Homo sapiens, UniProt Q13557)
Description: as §1

CAMKK2 = CAMKK2 (Homo sapiens, UniProt Q96RR4)
Description: as §1

CHEK1/CHK1 = CHEK1/CHK1 (Homo sapiens, UniProt O14757)
Chain of CHEK1/CHK1 (O14757 whole entry): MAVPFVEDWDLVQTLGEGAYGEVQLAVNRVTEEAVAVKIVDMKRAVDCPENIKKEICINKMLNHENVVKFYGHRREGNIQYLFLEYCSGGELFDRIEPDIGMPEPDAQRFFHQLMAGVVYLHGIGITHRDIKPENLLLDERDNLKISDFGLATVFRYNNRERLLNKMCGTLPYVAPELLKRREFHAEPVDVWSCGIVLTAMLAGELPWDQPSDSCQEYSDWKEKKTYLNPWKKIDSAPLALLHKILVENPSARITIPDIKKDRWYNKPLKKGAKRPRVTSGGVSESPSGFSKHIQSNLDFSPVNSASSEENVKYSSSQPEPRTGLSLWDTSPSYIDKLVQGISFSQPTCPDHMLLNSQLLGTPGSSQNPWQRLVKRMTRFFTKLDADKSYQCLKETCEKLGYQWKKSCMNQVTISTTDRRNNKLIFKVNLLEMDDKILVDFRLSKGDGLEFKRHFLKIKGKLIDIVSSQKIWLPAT
Description: as §1

DRAK1 = biological target: T1, DRAK1 (Homo sapiens, UniProt Q9UEE5)
T1 construct: gene STK17A
Description: as §1

DYRK1A = DYRK1A (Homo sapiens, UniProt Q13627)
Description: as §1

EGFR = EGFR (Homo sapiens, UniProt P00533)
Description: as §1

EIF2AK4/GCN2 = EIF2AK4/GCN2 (Homo sapiens, UniProt Q9P2K8)
Description: as §1

EPHA2 = EPHA2 (Homo sapiens, UniProt P29317)
Description: as §1

EPHB3 = EPHB3 (Homo sapiens, UniProt P54753)
Description: as §1

FAM20C = FAM20C (Homo sapiens, UniProt Q8IXL6)
Chain of FAM20C (Q8IXL6 whole entry): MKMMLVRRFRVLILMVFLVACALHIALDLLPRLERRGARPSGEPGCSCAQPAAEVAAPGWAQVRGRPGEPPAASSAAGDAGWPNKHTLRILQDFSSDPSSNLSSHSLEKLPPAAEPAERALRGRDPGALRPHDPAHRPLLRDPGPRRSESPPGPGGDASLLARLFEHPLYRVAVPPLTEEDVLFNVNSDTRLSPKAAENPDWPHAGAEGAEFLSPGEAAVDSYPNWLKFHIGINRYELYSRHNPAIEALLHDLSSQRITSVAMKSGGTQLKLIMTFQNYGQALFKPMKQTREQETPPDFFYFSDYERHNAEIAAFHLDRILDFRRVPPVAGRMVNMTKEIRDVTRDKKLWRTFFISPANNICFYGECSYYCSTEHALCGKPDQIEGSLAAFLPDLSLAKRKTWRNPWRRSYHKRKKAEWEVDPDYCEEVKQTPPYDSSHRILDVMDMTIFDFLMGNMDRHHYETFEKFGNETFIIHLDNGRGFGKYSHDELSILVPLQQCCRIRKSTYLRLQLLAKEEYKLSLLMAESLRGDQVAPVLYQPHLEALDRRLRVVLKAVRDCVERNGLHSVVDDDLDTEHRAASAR
Description: as §1

INSR = INSR (Homo sapiens, UniProt P06213)
Description: as §1

IRAK4 = IRAK4 (Homo sapiens, UniProt Q9NWZ3)
Chain of IRAK4 (Q9NWZ3 whole entry): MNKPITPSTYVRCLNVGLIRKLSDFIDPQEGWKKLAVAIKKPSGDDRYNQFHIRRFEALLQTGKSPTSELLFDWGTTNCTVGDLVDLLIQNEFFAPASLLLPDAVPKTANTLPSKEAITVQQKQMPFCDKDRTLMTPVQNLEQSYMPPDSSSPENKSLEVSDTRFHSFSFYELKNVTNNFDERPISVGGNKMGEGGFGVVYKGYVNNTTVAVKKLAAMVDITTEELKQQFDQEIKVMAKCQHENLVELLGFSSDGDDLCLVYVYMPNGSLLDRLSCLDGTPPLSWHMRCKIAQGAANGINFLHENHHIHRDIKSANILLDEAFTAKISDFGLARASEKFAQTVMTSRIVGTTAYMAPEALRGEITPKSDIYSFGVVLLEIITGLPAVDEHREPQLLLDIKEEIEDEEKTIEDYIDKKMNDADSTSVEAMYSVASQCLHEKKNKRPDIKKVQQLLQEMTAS
Description: as §1

JAK2(JH1) = JAK2(JH1) (Homo sapiens, UniProt O60674)
Description: as §1

LIMK1 = LIMK1 (Homo sapiens, UniProt P53667)
Description: as §1

MAP3K6/ASK2 = MAP3K6/ASK2 (Homo sapiens, UniProt O95382)
Chain of MAP3K6/ASK2 (O95382 whole entry): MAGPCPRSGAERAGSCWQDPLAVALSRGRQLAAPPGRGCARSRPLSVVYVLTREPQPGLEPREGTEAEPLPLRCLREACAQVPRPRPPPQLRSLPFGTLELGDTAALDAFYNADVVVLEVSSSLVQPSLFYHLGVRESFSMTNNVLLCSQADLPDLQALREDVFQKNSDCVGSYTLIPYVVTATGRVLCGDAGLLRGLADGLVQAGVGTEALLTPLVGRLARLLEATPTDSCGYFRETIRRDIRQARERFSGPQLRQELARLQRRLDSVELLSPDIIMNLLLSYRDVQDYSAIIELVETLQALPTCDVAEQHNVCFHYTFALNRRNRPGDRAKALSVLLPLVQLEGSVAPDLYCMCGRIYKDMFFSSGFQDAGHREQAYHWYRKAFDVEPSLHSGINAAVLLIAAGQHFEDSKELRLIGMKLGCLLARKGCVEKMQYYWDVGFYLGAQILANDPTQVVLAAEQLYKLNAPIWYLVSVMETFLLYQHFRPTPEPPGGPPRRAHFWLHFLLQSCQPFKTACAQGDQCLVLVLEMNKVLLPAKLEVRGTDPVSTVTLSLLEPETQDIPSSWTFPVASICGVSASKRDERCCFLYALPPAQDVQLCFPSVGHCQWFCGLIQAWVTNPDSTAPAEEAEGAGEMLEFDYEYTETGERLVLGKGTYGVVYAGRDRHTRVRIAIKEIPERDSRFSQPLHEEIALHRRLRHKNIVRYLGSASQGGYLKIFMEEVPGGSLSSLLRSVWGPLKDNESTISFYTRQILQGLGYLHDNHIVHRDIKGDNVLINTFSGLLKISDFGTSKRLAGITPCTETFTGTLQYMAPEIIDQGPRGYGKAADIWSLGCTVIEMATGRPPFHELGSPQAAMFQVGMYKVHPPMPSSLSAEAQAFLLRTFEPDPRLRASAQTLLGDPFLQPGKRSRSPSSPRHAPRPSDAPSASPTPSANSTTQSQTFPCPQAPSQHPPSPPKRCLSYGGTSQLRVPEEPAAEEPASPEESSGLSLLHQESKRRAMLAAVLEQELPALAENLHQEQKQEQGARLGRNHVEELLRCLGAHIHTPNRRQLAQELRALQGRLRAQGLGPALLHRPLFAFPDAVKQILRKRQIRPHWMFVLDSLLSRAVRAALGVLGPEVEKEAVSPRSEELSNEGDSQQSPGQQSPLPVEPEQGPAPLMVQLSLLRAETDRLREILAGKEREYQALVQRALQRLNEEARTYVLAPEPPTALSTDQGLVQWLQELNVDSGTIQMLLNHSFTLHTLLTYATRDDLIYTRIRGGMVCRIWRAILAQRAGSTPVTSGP
Description: as §1

MAPKAPK2/MK2 = MAPKAPK2/MK2 (Homo sapiens, UniProt P49137)
Description: as §1

MARK1 = MARK1 (Homo sapiens, UniProt Q9P0L2)
Description: as §1

MARK2 = MARK2 (Homo sapiens, UniProt Q7KZI7)
Description: as §1

MYLK2 = MYLK2 (Homo sapiens, UniProt Q9H1R3)
Description: as §1

MYO3B = MYO3B (Homo sapiens, UniProt Q8WXR4)
Description: as §1

NEK2 = NEK2 (Homo sapiens, UniProt P51955)
Description: as §1

PRKCB1/PKCB1 = biological target: T2, PRKCB1/PKCB1 (Homo sapiens, UniProt P05771)
T2 construct: gene PRKCB
Description: as §1

PRKCD/CPKCD = PRKCD/CPKCD (Homo sapiens, UniProt Q05655)
Description: as §1

RET = RET (Homo sapiens, UniProt P07949)
Description: as §1

RPS6KA2/RSK3 = RPS6KA2/RSK3 (Homo sapiens, UniProt Q15349)
Chain of RPS6KA2/RSK3 (Q15349 whole entry): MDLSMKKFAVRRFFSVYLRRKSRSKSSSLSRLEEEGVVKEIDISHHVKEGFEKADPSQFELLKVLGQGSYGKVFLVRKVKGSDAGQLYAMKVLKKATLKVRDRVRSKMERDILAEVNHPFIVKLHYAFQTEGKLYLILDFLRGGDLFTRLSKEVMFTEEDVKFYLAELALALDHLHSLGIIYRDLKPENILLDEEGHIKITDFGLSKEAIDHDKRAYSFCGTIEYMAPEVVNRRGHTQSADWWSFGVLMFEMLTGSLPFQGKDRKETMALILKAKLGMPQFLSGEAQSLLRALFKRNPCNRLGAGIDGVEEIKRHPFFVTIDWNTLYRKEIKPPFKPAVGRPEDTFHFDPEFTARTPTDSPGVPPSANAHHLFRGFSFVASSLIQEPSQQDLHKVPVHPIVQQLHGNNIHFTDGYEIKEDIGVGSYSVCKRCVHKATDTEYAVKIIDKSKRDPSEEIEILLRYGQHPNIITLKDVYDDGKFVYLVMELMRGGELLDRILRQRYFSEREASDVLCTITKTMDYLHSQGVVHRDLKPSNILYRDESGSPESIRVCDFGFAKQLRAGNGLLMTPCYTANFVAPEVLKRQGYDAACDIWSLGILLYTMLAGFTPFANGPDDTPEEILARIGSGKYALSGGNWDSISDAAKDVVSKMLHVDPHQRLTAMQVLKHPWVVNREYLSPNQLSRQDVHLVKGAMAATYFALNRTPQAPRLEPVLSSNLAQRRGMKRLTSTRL
Description: as §1

RPS6KB1/P70S6K = RPS6KB1/P70S6K (Homo sapiens, UniProt P23443)
Description: as §1

SGK1 = SGK1 (Homo sapiens, UniProt O00141)
Chain of SGK1 (O00141 whole entry): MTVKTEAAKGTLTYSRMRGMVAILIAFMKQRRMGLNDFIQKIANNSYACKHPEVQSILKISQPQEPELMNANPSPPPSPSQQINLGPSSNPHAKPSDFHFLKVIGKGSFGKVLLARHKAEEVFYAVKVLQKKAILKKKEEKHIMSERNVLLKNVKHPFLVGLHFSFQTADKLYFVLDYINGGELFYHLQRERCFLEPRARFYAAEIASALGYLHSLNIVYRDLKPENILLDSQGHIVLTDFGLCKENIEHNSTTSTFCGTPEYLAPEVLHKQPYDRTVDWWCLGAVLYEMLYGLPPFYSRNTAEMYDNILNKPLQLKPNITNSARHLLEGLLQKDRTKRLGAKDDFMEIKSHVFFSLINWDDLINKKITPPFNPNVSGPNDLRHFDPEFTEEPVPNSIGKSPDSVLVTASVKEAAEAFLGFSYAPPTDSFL
Description: as §1

SGK2 = SGK2 (Homo sapiens, UniProt Q9HBY8)
Chain of SGK2 (Q9HBY8 whole entry): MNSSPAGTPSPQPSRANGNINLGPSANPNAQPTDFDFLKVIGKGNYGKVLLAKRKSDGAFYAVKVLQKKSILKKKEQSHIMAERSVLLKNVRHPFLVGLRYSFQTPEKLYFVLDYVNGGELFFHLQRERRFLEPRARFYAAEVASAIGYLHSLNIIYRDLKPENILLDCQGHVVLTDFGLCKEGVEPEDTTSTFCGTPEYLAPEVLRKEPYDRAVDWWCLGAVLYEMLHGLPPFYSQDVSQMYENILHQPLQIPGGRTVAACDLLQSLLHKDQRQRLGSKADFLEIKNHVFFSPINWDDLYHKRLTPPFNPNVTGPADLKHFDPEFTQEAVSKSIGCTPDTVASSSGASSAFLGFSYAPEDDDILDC
Description: as §1

SRPK2 = SRPK2 (Homo sapiens, UniProt P78362)
Description: as §1

STK24/MST3 = STK24/MST3 (Homo sapiens, UniProt Q9Y6E0)
Description: as §1

TAOK1 = TAOK1 (Homo sapiens, UniProt Q7L7X3)
Description: as §1

TNK1 = TNK1 (Homo sapiens, UniProt Q13470)
Chain of TNK1 (Q13470 whole entry): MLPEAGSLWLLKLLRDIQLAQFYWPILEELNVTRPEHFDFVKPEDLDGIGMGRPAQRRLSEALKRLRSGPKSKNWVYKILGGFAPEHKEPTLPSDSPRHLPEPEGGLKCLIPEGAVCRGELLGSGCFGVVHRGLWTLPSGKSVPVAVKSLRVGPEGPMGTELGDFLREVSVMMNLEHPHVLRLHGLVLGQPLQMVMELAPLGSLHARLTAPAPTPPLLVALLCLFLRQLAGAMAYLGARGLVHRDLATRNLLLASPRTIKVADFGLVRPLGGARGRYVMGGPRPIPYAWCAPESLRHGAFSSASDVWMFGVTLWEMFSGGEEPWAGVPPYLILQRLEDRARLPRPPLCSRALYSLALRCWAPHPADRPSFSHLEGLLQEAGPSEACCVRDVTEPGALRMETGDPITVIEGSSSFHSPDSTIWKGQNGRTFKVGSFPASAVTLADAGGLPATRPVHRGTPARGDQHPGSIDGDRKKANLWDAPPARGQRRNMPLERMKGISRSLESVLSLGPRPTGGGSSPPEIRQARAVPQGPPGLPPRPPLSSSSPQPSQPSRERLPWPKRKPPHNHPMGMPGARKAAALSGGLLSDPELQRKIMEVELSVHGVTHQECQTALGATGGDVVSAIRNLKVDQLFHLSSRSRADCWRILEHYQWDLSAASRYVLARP
Description: as §1

TSSK6 = TSSK6 (Homo sapiens, UniProt Q9BXA6)
Description: as §1

TTK = TTK (Homo sapiens, UniProt P33981)
Description: as §1

ULK1 = ULK1 (Homo sapiens, UniProt O75385)
Description: as §1

ULK3 = ULK3 (Homo sapiens, UniProt Q6PHR2)
Description: as §1

ZAP70 = ZAP70 (Homo sapiens, UniProt P43403)
Description: as §1

## C=CC(=O)N1CCC[C@@H](n2nc(-c3ccc(Oc4ccccc4)cc3)c3c(N)ncnc32)C1 [Ibrutinib]
BRSK2
  1 µM GBD00276 (ibrutinib), % inhibition: -9.3%
CAMK2A
  1 µM GBD00276 (ibrutinib), % inhibition: 2.188%
CAMK2D
  1 µM GBD00276 (ibrutinib), % inhibition: 12.33%
CAMKK2
  1 µM GBD00276 (ibrutinib), % inhibition: 2.203%
CHEK1/CHK1
  1 µM GBD00276 (ibrutinib), % inhibition: -3.114%
DRAK1
  1 µM GBD00276 (ibrutinib), % inhibition: 18.73%
DYRK1A
  1 µM GBD00276 (ibrutinib), % inhibition: 15.66%
EGFR
  1 µM GBD00276 (ibrutinib), % inhibition: 96.63%
EIF2AK4/GCN2
  1 µM GBD00276 (ibrutinib), % inhibition: -3.934%
EPHA2
  1 µM GBD00276 (ibrutinib), % inhibition: 9.007%
EPHB3
  1 µM GBD00276 (ibrutinib), % inhibition: 8.156%
FAM20C
  1 µM GBD00276 (ibrutinib), % inhibition: 3.541%
INSR
  1 µM GBD00276 (ibrutinib), % inhibition: -2.978%
IRAK4
  1 µM GBD00276 (ibrutinib), % inhibition: 1.168%
JAK2(JH1)
  1 µM GBD00276 (ibrutinib), % inhibition: 4.378%
LIMK1
  1 µM GBD00276 (ibrutinib), % inhibition: 4.583%
MAP3K6/ASK2
  1 µM GBD00276 (ibrutinib), % inhibition: 25.05%
MAPKAPK2/MK2
  1 µM GBD00276 (ibrutinib), % inhibition: 8.023%
MARK1
  1 µM GBD00276 (ibrutinib), % inhibition: -2.409%
MARK2
  1 µM GBD00276 (ibrutinib), % inhibition: 4.287%
MYLK2
  1 µM GBD00276 (ibrutinib), % inhibition: -0.5778%
MYO3B
  1 µM GBD00276 (ibrutinib), % inhibition: -1.464%
NEK2
  1 µM GBD00276 (ibrutinib), % inhibition: 2.418%
PRKCB1/PKCB1
  1 µM GBD00276 (ibrutinib), % inhibition: -10.64%
PRKCD/CPKCD
  1 µM GBD00276 (ibrutinib), % inhibition: -43.15%
RET
  1 µM GBD00276 (ibrutinib), % inhibition: 15.14%
RPS6KA2/RSK3
  1 µM GBD00276 (ibrutinib), % inhibition: 22.45%
RPS6KB1/P70S6K
  1 µM GBD00276 (ibrutinib), % inhibition: -19.78%
SGK1
  1 µM GBD00276 (ibrutinib), % inhibition: -3.083%
SGK2
  1 µM GBD00276 (ibrutinib), % inhibition: -4.773%
SRPK2
  1 µM GBD00276 (ibrutinib), % inhibition: 8.374%
STK24/MST3
  1 µM GBD00276 (ibrutinib), % inhibition: -20.41%
TAOK1
  1 µM GBD00276 (ibrutinib), % inhibition: 0.7765%
TNK1
  1 µM GBD00276 (ibrutinib), % inhibition: -7.554%
TSSK6
  1 µM GBD00276 (ibrutinib), % inhibition: 2.044%
TTK
  1 µM GBD00276 (ibrutinib), % inhibition: 9.751%
ULK1
  1 µM GBD00276 (ibrutinib), % inhibition: -8.778%
ULK3
  1 µM GBD00276 (ibrutinib), % inhibition: 2.341%
ZAP70
  1 µM GBD00276 (ibrutinib), % inhibition: -0.02061%
